Key:
[1] = tested on: BT-474 human mammary tumor cells; experiment: Cytotoxicity on BT-474 cells, trypan blue; format: cell-based; details: BT-474, trypan blue, 48 h
Description: (§1) The cellular viability tests were also carried out on BT-474 human mammary tumor cells (characterized as being positive triples HER2+, ER+, PR+). The BT-474 cells are in a cell culture medium identical to the preceding example and are seeded in 24-well plates at 70 000 cells per well, for determination of cellular viability using trypan blue, or in 96-well plates at 13 000 cells per well for determination of cellular viability using the MTT or LDH assay. After 96 hours (h) of culture in normal conditions, i.e. in an incubator at a temperature of 37° C. at 5% CO2, the BT-474 cells are treated for 48 h with DX101, DX107, and DX113 at 100 nM, 1 μM, 2.5 μM and 10 μM. A control is also carried out using the protocol described above but without treatment with the molecules DX101, DX107, DX113, DX117, DX119, DX121 or DX131.
(§2) After trypsin digestion for 10 minutes at 37° C., cell survival was quantified, also by a trypan blue assay with automatic counting with the Biorad TC20 equipment (TC20™ Automated Cell Counter). The trypan blue assay is based on the cell membrane integrity, which is broken in the dead cells. Trypan blue stains the dead cells blue. The Biorad TC20 cell counter counts the proportion of blue cells and non-blue cells, relative to the cell percentages. The percentage viability is then determined in each well relative to the untreated cells and the IC50 is determined as explained in the preceding example. The percentage viability of the BT-474 cells was determined using the MTT and LDH assay, carried out as described in the preceding example.

[2] = tested on: BT-474 human mammary tumor cells; experiment: Cytotoxicity on BT-474 cells, LDH; format: cell-based; details: for Mean LogIC50 (±SEM): log of IC50 in μM; for IC50: Homo sapiens
Description: (§3) For the second method, the percentage viability is determined using assay of the activity of the enzyme LDH (lactate dehydrogenase) in the cellular supernatants using the kit non radioactive cytotoxicity assay kit (Promega). LDH is an enzyme released in the supernatant of dead cells. The higher the LDH activity in the supernatant, the greater is the cell death. In this enzyme test, the LDH released converts a violet tetrazolium salt to formazan, of red color, absorbing at 490 nm. The intensity of the red color is proportional to the number of dead cells. After 48 h of treatment, the supernatants are transferred to a new 96-well plate and are incubated for 30 minutes in the presence of the substrate mix at room temperature. The reaction is stopped using the stop buffer and the absorbance is determined at 490 nm. The percentage cell death is determined here using a control 100% of maximum activity of LDH (carried out with untreated cells incubated in the presence of the lysis solution for 45 minutes at 37° C. just before adding the substrate mix), and the cellular viability in each well is then deduced from this percentage. IC50 is then determined as explained in the preceding paragraph.
as §1, §2

[3] = tested on: 4T1 cells; experiment: Cytotoxicity on 4T1 cells, MTT; format: cell-based, murine; details: Mus musculus
Description: (§4) The cellular viability tests were carried out on murine mammary tumor 4T1 cells characterized as negative triples (HER2−, ER−, PR−).
(§5) For this experiment, a cell culture medium was prepared. The culture medium consists of Dulbecco's Modified Eagle Medium (DMEM, marketed by Westburg under the reference LO BE12-604F), comprising 4.5 g/L glucose with L-glutamine, to which 10% of fetal calf serum (FCS) and 50 U/mL of penicillin/streptomycin are added. The 4T1 cells are introduced into this culture medium.
(§6) 96-well plates were seeded with 2000 4T1 cells per well. After 72 hours (h) of culture in normal conditions, i.e. in an incubator at a temperature of 37° C. at 5% CO2, the 4T1 cells are treated for 48 h with DX101, DX107, DX113, DX117, DX119, DX121 or DX131 at 100 nM, 1 μM, 2.5 μM and 10 μM. A control condition (CTL) is also carried out in parallel using the protocol described above but without treatment with the molecules DX101, DX107, DX113, DX117, DX119, DX121, DX131 or DX133.
(§7) Cellular viability is measured by three different methods. For the first method, MTT labeling is carried out at 48 hours. This test is based on the use of the tetrazolium salt MTT (3-(4,5-dimethylthiazol-2-yl)-2,5-diphenyltetrazolium bromide). The tetrazolium is reduced by mitochondrial succinate dehydrogenase of active living cells, to formazan, a precipitate of a violet color. The quantity of precipitate formed is proportional to the quantity of living cells but also to the metabolic activity of each cell. […] After 48 hours, the medium is aspirated, and the cells are incubated with MTT (0.5 mg/ml in culture medium) for about 3 hours. The MTT solution is aspirated and the violet crystals are dissolved in dimethylsulfoxide (DMSO). The OD (optical density) is measured at 550 nm. The percentage viability is then determined in each well relative to the CTL and the IC50 (concentration for which there are still 50% of living cells) is determined for each molecule with Prism software using the nonlinear regression straight line (log(inhibitor) vs. Response).

[4] = tested on: 4T1 cells; experiment: Cytotoxicity on 4T1 cells, LDH; format: cell-based, murine; details: Mus musculus
Description: as §4, §5, §6, §3

[5] = tested on: BT-474 human mammary tumor cells; experiment: Cytotoxicity on BT-474 cells, MTT; format: cell-based; details: for Mean LogIC50 (±SEM): log of IC50 in μM; for IC50: Homo sapiens
Description: as §7, §1, §2

[6] = tested on: 4T1 cells; experiment: Cytotoxicity on 4T1 cells, CellTox Green Cytotoxicity Assay; format: cell-based, murine; details: Mus musculus
Description: as §4, §5, §6
For the third method, the percentage viability is determined using the kit CellTox Green Cytotoxicity Assay (Promega). This assay measures cell death via a change in membrane integrity. […] As a result, the higher the fluorescence in the wells, the greater is the cell death. After 48 h of treatment, the cells are incubated for a minimum of 15 minutes in the presence of the Celltox green reagent at room temperature and the fluorescence is read at […]. The percentage cell death is determined using the control 100% of cell death (carried out for untreated cells incubated in the presence of the lysis solution for 30 minutes at 37° C. before adding the Celltox green reagent), and the cellular viability in each well is then deduced from this percentage. IC50 is then determined as explained above.

[7] = Pharmacokinetic study of DX117 (LC/MS in plasma); format: in vivo; details: rat, 50 mg/kg, administered compound assayed
From the text: (§8) The following study is a determination by LC/MS in plasma of the various molecules over 3 days (11 measurement points at the end). The graphs are always presented in comparison with DX101, which is the reference. […]

[8] = Pharmacokinetic study of DX121 (LC/MS in plasma); format: in vivo; details: rat, oral 50 mg/kg, administered compound assayed
From the text: as §8

[9] = BT-474, LDH, 48 h, read-out: IC50
[10] = 4T1, MTT, 48 h, log of IC50 in μM, read-out: Mean LogIC50 (±SEM) (converted)
[11] = 4T1, LDH, 48 h, log of IC50 in μM, read-out: Mean LogIC50 (±SEM) (converted)
[12] = BT-474, MTT, 48 h, read-out: IC50
[13] = 4T1, Green Cytotoxicity Assay, 48 h, log of IC50 in μM, read-out: Mean LogIC50 (±SEM) (converted)
[14] = 4T1, Green Cytotoxicity Assay, 48 h, read-out: IC50
[15] = 4T1, 48 h, read-out: Mean LogIC50 (±SEM) (converted)

Structure (SMILES) | Mean LogIC50 (±SEM) ([2]; BT-474, LDH, 48 h) | IC50 [2, 9] [µM] | IC50 [3, 10] [µM] | IC50 ([3]; 4T1, MTT, 48 h, read-out: IC50) [µM] | IC50 [4, 11] [µM] | IC50 ([4]; 4T1, LDH, 48 h, read-out: IC50) [µM] | Mean LogIC50 (±SEM) ([5]; BT-474, MTT, 48 h) | IC50 [5, 12] [µM] | IC50 [6, 13] [µM] | IC50 [6, 14] [µM] | other results
CCCCCC(=O)O[C@H]1CC[C@]2(C)[C@H]3CC[C@]4(C)[C@@H]([C@H](C)CCCC(C)C)CC[C@H]4[C@@H]3C[C@@H](NCCc3cnc[nH]3)[C@@]2(O)C1 [DX113, 5α-hydroxy-6β-[2-(1H-imidazol-4-yl)-ethylamino]-cholestan-3β-yl hexanoate] | 1.38 ± 0.07 | 23.7 | 18.2 | 18.2 | 5.25 | 5.28 | 1.33 ± 0.07 | 21.4 | 11 | 10.9 | Mean LogIC50 (±SEM) ([1]; log of IC50 in μM): 1.09 ± 0.15; IC50 ([1]; Homo sapiens): 12.3 µM
CC(C)CCCC(C)[C@H]1CCC2C3C[C@@H](NCCc4c[nH]cn4)[C@@]4(O)C[C@@H](OC(=O)NCCc5c[nH]cn5)CC[C@]4(C)C3CC[C@@]21C (stereo partly drawn) [DX117, 5α-hydroxy-6β-[2-(1H-imidazol-4-yl)ethylamino]-cholestan-3β-yl-(2-(1H-imidazol-4-yl)ethyl)carbamate] | 0.72 ± 0.18 | 5.25 | 11 | 10.9 | 8.32 | 8.31 | 0.79 ± 0.06 | 6.17 | 9.55 | 9.54 | Concentration max [7]: 76.67 nM; Area under curve ([7]; 0-72 h): 2123
CCC(=O)NC(Cc1ccc(O)cc1)C(=O)O[C@H]1CC[C@]2(C)C3CC[C@@]4(C)C(CC[C@@H]4C(C)CCCC(C)C)C3C[C@@H](NCCc3c[nH]cn3)[C@@]2(O)C1 (stereo partly drawn) [DX133, 5α-hydroxy-6β-[2-(1H-imidazol-4-yl)ethylamino]cholestan-3β-yl propionyltyrosine] |  |  | 12.3 | 12.2 | 4.17 | 4.17 |  |  | 3.55 | 3.56 | 
CCOC(=O)O[C@H]1CC[C@]2(C)[C@H]3CC[C@]4(C)[C@@H]([C@H](C)CCCC(C)C)CC[C@H]4[C@@H]3C[C@@H](NCCc3c[nH]cn3)[C@@]2(O)C1 [DX121, 5α-hydroxy-6β-[2-(1H-imidazol-4-yl)ethylamino]cholestan-3β-yl ethyl carbonate] | 1.47 ± 0.40 | 11.8 | 11 | 10.8 | 4.68 | 4.69 | 1.05 ± 0.17 | 11.2 | 6.61 | 6.59 | Concentration max [8]: 96.33 nM; Area under curve ([8]; 0-72 h): 1000
CCN(CC)C(=O)O[C@H]1CC[C@]2(C)C3CC[C@@]4(C)C(CC[C@@H]4C(C)CCCC(C)C)C3C[C@@H](NCCc3c[nH]cn3)[C@@]2(O)C1 (stereo partly drawn) [DX131, 5α-hydroxy-6β-[2-(1H-imidazol-4-yl)ethylamino]cholestan-3β-yl-diethyl carbamate] | 1.45 ± 0.08 |  |  |  |  |  | 1.08 ± 0.08 |  |  |  | IC50 ([2]; BT-474, 48 h): 28.2 µM; IC50 ([3]; 4T1, 48 h): 25.7 µM; IC50 [3, 15]: 25.7 µM; IC50 ([4]; 4T1, 48 h): 6.76 µM; IC50 [4, 15]: 6.76 µM; IC50 ([5]; BT-474, 48 h): 12 µM; IC50 ([6]; 4T1, 48 h): 1.81 µM; IC50 [6, 15]: 1.7 µM
CCCCOC(=O)O[C@H]1CC[C@]2(C)[C@H]3CC[C@]4(C)[C@@H]([C@H](C)CCCC(C)C)CC[C@H]4[C@@H]3C[C@@H](NCCc3c[nH]cn3)[C@@]2(O)C1 [DX119, 5α-hydroxy-6β-[2-(1H-imidazol-4-yl)ethylamino]cholestan-3β-yl butyl carbonate] | 1.41 ± 0.01 | 25.4 | 9.33 | 9.23 | 3.09 | 3.12 | 1.33 ± 0.06 | 14.5 | 3.63 | 3.67 | 

— patent US20240002429A1, “PRODRUG OF 5a-HYDROXY-6ß-[2-(1H-IMIDAZOL-4-YL)ETHYLAMINO]CHOLESTAN-3ß-OL AND PHARMACEUTICAL COMPOSITIONS COMPRISING SAME FOR USE IN THE TREATMENT OF CANCER” (priority 2020, published 2024)
